Data reported in patent publication US6352713B1, “Nutritional composition” (Drugtech Corporation, priority 1999, dated 2002).

How the values were obtained:
[1] = pH of the solution/suspension of a composition in deionized water; assay type: physicochemical; details: ascorbic acid/calcium carbonate mixtures; amount equivalent to 50 mg ascorbic acid in 25 ml deionized water, stirred ten minutes
Experimental: As discussed herein, the pH of the present composition is measured by any suitable means well known to persons of ordinary skill in the art. […] Another non-limiting exemplary technique for measuring the pH of a dosage form is to use a glass mortar and pestle to grind one tablet until a finely divided uniform powder is obtained. The finely divided uniform powder is then added to an appropriate vessel and the pH is then determined as in manner of the preceding example.
To the beaker was added 25 ml of deionized water. The contents of the beaker were then vigorously stirred for ten minutes. The pH of the resultant solution/suspension was then measured.
To the beaker was added 25 ml of deionized water. The contents were then vigorously stirred for ten minutes. The pH of the resultant solution/suspension was then measured.
In comparison, a conventional chewable prenatal supplement containing 1000 IU of vitamin A, 400 IU of vitamin D3, 11 IU of vitamin E, 120 mg of vitamin C, 1 mg of folic acid, 2 mg of vitamin B1, 3 mg of riboflavin, 20 mg of niacin, 10 mg of vitamin B6, 12 mcg of vitamin B12 and 29 mg of iron was obtained. […] To the beaker was added 25 ml of deionized water. The contents were then vigorously stirred for ten minutes or until dissolved. The pH of the resultant solution/suspension was then measured.

[2] = cited from earlier work

| Structure (SMILES) | pH Value [1] | share of dietary folic acid available to the body (bioavailability) [2] |
| --- | --- | --- |
| O=C1O[C@H]([C@@H](O)CO)C(O)=C1O [Ascorbic Acid] | 3.32 | – |
| Nc1nc2ncc(CNc3ccc(C(=O)N[C@@H](CCC(=O)O)C(=O)O)cc3)nc2c(=O)[nH]1 [Folic acid, pteroylglutamic acid] | – | about half |
